Results taken from patent US10456344B2, “Hair composition” (Conopco, Inc., priority 2014, dated 2019).

How the values were obtained:
[1] = test system: antioxidant response element (ARE); assay: HaCaT cell with antioxidant response element (ARE) reporter gene (luciferase) assay; assay type: cell-based, human; conditions: n = 3
Experimental: HaCaT (immortal human keratinocyte) cells (P42) were stored in liquid nitrogen and revived in DMEM containing 10% FBS. The cells were sub-cultured and cryostocks made in 10% DMEM containing 10% DMSO from the first two passages.
To generate a stable cell line, the optimal antibiotic concentration was determined for selecting stable cell colonies. A kill curve was performed using untransfected HaCaT cells to evaluate their hygromycin B sensitivity (as the ARE-luciferase construct to be used for transfection contains the gene for hygromycin B resistance). HaCaT cells were plated in a 24-well tissue culture plate at a cell density of ˜80,000 cells per well. 24 hours later the cells were treated with different concentrations of Hygromycin B (ranging from 100 μg/ml to 800 μg/ml for seven days).
pGL4.37 (luc2P/ARE/Hygro) vector (Promega Cat. No. #E3641) transformed into DH5α competent cells (Invitrogen Cat. No. #18263-012). These were then plated on to an LB-ampicillin plate and kept overnight at 37° C. in an incubator.
The next day, single colonies were picked and inoculated in 5 ml LB Amp medium and kept at 37° C. for 8 hours in a shaker incubator at 250 rpm. The starter culture was then inoculated at 1:100 in 100 ml LB Amp medium. 24 hours later, the culture was harvested and transfection grade plasmid prepared using Sigma's Plasmid Midiprep Kit (Cat. No. #PLD35-1KT).
HaCaT cells were plated in 6-well tissue culture plate at a cell density of 500,000 cells per well. After 24 hours, the cells were transfected with 2 μg of endotoxin-free transfection grade pGL4.37 [luc2P/ARE/Hygro] vector in duplicates using Lipofectamine 2000 Reagent (Invitrogen) as per manufacturer's protocol. After transfection, HaCaT cells were allowed to grow and to express the protein for Hygromycin B resistance under non-selective conditions for 24 hours. One day post transfection cells were treated with Hygromycin B at a concentration of 400 μg/ml to initiate the antibiotic selection pressure. For the selection of stably expressing cells, HaCaT cells were grown in 10% DMEM medium containing 400 μg/ml of Hygromycin B. Under Hygromycin B selective conditions, resistant cells will outgrow non-resistant cells thereby resulting in a polyclonal population of stably-expressing cells. Stably expressing HaCaT cells were fed every 2-3 days with 400 μg/ml Hygromycin B selection medium. After 3 weeks of selection with 400 μg/ml of Hygromycin B medium stable pools were observed on the plate. Individual clones were picked using cloning rings and transferred to 96-well plate and expanded up to T25 cm^2 flask. Out of a dozen individual clones, clone 7 was chosen and validated for expression of luciferase upon treatment with D,L-sulforaphane.
HaCaT_ARE_luc2P_Clone_7 cells were seeded in a 96 well plate at a cell density of ˜7.5×10^3 cells per well. 24 hours later D, L-sulforaphane was added at increasing concentrations (0 μM, 0.2 μM, 0.4 μM, 0.6 μM, 0.8 μM and 1 μM). A standard curve for the luciferase assay was generated for relative light units (RLU) for HaCaT_ARE_Clone_7 cells treated with increasing concentrations of D,L-sulforaphane.
HaCaT_ARE_luc2P_Clone_7 cells were seeded in 96 well plates at a cell density of ˜7,500 cells per well. All test compounds were added to the cells at a final dilution of 1:1000 and the luciferase assay performed.
The following combinations of test compounds were evaluated in the assay: • (a) granilin, an NRF2 agonist, and 22(R)-hydroxycholesterol, a liver X receptor α/β agonist; • (b) granilin and 3-[3-[[[2-chloro-3-(trifluoromethyl)phenyl]methyl](2,2-diphenylethyl) amino]propoxy]benzeneacetic acid hydrochloride (also known as GW 3965 hydrochloride and available from Tocris), a liver X receptor α/β agonist; and • (c) granilin and stigmasterol, a liver X receptor α/β agonist. Results

[2] = test system: NADP(H): quinone oxidoreductase (NQO-1); assay: NQO-1 gene expression assay of hair follicle cells (real time PCR); assay type: cell-based, human; conditions: 24 hour treatment, n = 3
Text: Temporal or occipital human scalp skin was obtained from subjects undergoing face-lift or hair transplant surgery with informed consent and ethics approval. Anagen VI hair follicles were isolated and maintained according to the method described in Philpott et al (J. Cell Sci 97, 463-471 (1990)). Dhurat et al (Int J Trichology, 2(2), 96-100 (July-December 2010)) describe that anagen is conventionally divided into six stages, Anagen I-V (proanagen), when the hair shaft grows within the hair follicle, and Anagen VI ([…]), when the tip of the hair shaft emerges from the hair follicle. Hair follicles were stabilised in RNAlater (for PCR). Five individual Anagen VI hair follicles were used for each culture condition/patient. […] RNA was extracted using the Qiagen RNeasy Microkit (maximum 5 mg tissue per extraction). […] cDNA was diluted 1:10 in RNase free water. […] Plates were run on an Applied Biosystems StepOnePlusTM Real Time PCR machine. Fast cycling conditions were used, utilising a 2 minute polymerase activation step at 95° C., followed by 45 cycles of denaturing at 95° C. for 1 second, and annealing/extension at 60° C. for 20 seconds. […] Data was analysed by the ΔΔCt methodology The test compounds were sulforaphane, an NRF2 agonist, and 22(R)-hydroxycholesterol, a liver X receptor α/β agonist, and mixtures thereof.

[3] = test system: hemeoxygenase-1 (HO-1) protein; assay: HO-1 ELISA of lysates of treated HaCaT cells; assay type: cell-based, human; conditions: 24 hours, n = 3
Experimental: HaCaT (immortal human keratinocyte) cells (P42) were stored in liquid nitrogen and revived in DMEM containing 10% FBS. The cells were sub-cultured and cryostocks made in 10% DMEM containing 10% DMSO from the first two passages. Cells were routinely plated out in 6-well tissue culture dishes, at a seeding density of ˜5000 cells/cm2 in 2 ml complete medium/well for 24 hours, and incubated at 37° C. in 5% CO2. Test solutions were prepared in ethanol or DMSO and added directly to the cells and treated for 24 hours. The cells were then pelleted. All cell pellets were lysed on ice for 30 minutes in 1 ml cell lysis buffer per 2.5×10^6 cells. The lysis buffer contained 1% NP-40, 0.1% sodium deoxycholate, 0.1% SDS, 6 mM sodium chloride and 0.05 M Tris at pH 7.6. […] Sigma P8340) was added prior to use at a level of 10 μl per ml of lysis buffer. The clarified cell lysate was frozen at −80° C. until needed. The total protein concentration of each cell lysate was measured using the Pierce BCA protein assay kit. […] The reagent solution was prepared according to the kit instructions from 50 parts reagent A and 1 part reagent B. 200 μl of the final reagent was added to each well of the microtitre plate. The plate was mixed, covered and incubated at 37° C. for 30 minutes and absorbance read at 562 nm. A protein standard curve was constructed and used to determine the protein concentration of each cell lysate. HO-1 ELISA (R & D Systems) The hemeoxygenase-1 (HO-1) protein concentration of each cell lysate was assayed using the DuoSet Human Total HO-1/HMOX1 assay (R&D Systems DYC3776) according to the manufacturer's instructions. […] The HO-1 capture antibody was diluted to a concentration of 8 μg/ml in PBS and was bound to the microtitre plate (Greiner Bio-One) overnight at room temperature. The unbound antibody was then removed by washing 3 times with wash buffer (0.05% Tween 20 in PBS) on an automatic plate washer. […] The plate was washed as before. 100 μl of 1/200 diluted streptavidin horseradish peroxidase (HRP) was added to each well and incubated in the dark for 20 minutes at room temperature. The plate was washed as before and then 100 μl of substrate solution (R&D Systems DY999, 1:1 mixture of Colour Reagent A and Colour Reagent B) was added to each well and incubated, in the dark at room temperature, until colour developed (approx 20 minutes). 50 μl of stop solution (2M H2SO4) was applied to each well and the plate read on a microplate reader (Dynex MRX) at 450 nm with wavelength correction set at 540 nm. A standard curve was plotted of mean OD versus HO-1 concentration and the line of best fit calculated by regression analysis. The unknown concentration of HO-1 protein in all the samples was calculated from this. The results were normalised using the total protein data and expressed as ng HO-1 per μg protein. The test compounds were sulforaphane, an NRF2 agonist, and 22(R)-hydroxycholesterol, a liver X receptor α/β agonist, and mixtures thereof.

HO-1 = conditions: hair follicles treated with sulforaphane; cited from earlier work

SMILES	RLU ([1]; 1 μM single compound) [RLU]	RLU ([1]; 10 μM single compound) [RLU]	HO-1 protein (ng HO-1 per μg protein) ([3]; 1 μM single compound)	also measured
CC[C@H](/C=C/[C@@H](C)[C@H]1CC[C@H]2[C@@H]3CC=C4C[C@@H](O)CC[C@]4(C)[C@H]3CC[C@]12C)C(C)C [stigmasterol]	0.78 ± 0.02	0.69 ± 0.00	–	–
CC(C)CC[C@@H](O)[C@@H](C)[C@H]1CC[C@H]2[C@@H]3CC=C4C[C@@H](O)CC[C@]4(C)[C@H]3CC[C@]12C [22(R)-hydroxycholesterol]	1.17 ± 0.03	0.67 ± 0.01	1.486 ± 0.387	NQO-1 Fold change compared to 18S ([2]; 5 μM): 1.04 ± 0.05 Fold change; HO-1 protein (ng HO-1 per μg protein) ([3]; 10 μM single compound): 3.174 ± 0.119 ng HO-1 per μg protein
C[S+]([O-])CCCCN=C=S (stereo not shown) [sulforaphane]	–	–	1.910 ± 0.418	HO-1 in the mesenchymal connective tissue sheath (HO-1): up-regulation of HO-1; NQO-1 Fold change compared to 18S ([2]; 10 μM): 5.44 ± 0.50 Fold change; HO-1 protein (ng HO-1 per μg protein) ([3]; 0.01 μM single compound): 1.602 ± 0.248 ng HO-1 per μg protein; HO-1 protein (ng HO-1 per μg protein) ([3]; 0.05 μM single compound): 1.600 ± 0.385 ng HO-1 per μg protein
Cl.O=C(O)Cc1cccc(OCCCN(Cc2cccc(C(F)(F)F)c2Cl)CC(c2ccccc2)c2ccccc2)c1 [GW 3965 hydrochloride, 3-[3-[[[2-chloro-3-(trifluoromethyl)phenyl]methyl](2,2-diphenylethyl)amino]propoxy]benzeneacetic acid hydrochloride]	1.02 ± 0.02	0.63 ± 0.01	–	–
C=C1C(=O)O[C@@H]2C[C@@]3(C)[C@@H](O)C[C@@H](O)C(=C)[C@@H]3C[C@H]12 [granilin]	3.77 ± 0.31	–	–	RLU ([1]; 5 μM single compound): 15.04 ± 0.18 RLU
